Source: the NIST ThermoML archive (doi:10.1021/je800463k)

Assay: mn = molality of the nth substance listed, in mol/kg
Conditions: 101 kPa, Liquid; for electrical conductivity: Frequency=0.001 MHz, Alternating current cell with electrodes; for speed of sound: Frequency=2 MHz; for mass density: Pycnometric method

[Mg+2].[O-][Cl+3]([O-])([O-])[O-].[O-][Cl+3]([O-])([O-])[O-] [magnesium perchlorate] + CO
Conditions	electrical conductivity [S/m]	mass density [kg/m3]	speed of sound [m/s]	viscosity [mPa·s]
273.15 K, m1 = 0.0542	0.2699	–	1195.2	0.8742
273.15 K, m1 = 0.078	0.4031	–	1201.1	–
273.15 K, m1 = 0.0925	0.4435	–	1203.6	0.9094
273.15 K, m1 = 0.1673	0.6702	–	1212.8	0.9874
273.15 K, m1 = 0.2872	0.9762	–	1226	1.13
273.15 K, m1 = 0.3228	1.058	–	1230.6	1.168
273.15 K, m1 = 0.4313	1.299	–	1245.5	1.329
273.15 K, m1 = 0.6444	1.752	–	1268.2	1.64
273.15 K, m1 = 1.059	2.122	–	1308.9	2.393
273.15 K, m1 = 1.395	2.273	–	1342.5	3.292
273.15 K, m1 = 1.717	2.343	–	1366.9	3.854
273.15 K, m1 = 2	2.355	–	1385.5	4.766
283.15 K, m1 = 0.0542	0.3054	–	1162.7	0.7345
283.15 K, m1 = 0.078	0.4563	–	1167.8	–
283.15 K, m1 = 0.0925	0.5023	–	1170.8	0.768
283.15 K, m1 = 0.1673	0.7619	–	1178.9	0.8318
283.15 K, m1 = 0.2872	1.116	–	1193.9	0.9437
283.15 K, m1 = 0.3228	1.213	–	1197.5	0.9745
283.15 K, m1 = 0.4313	1.497	–	1213.2	1.102
283.15 K, m1 = 0.6444	2.001	–	1236.8	1.342
283.15 K, m1 = 1.059	2.513	–	1278.5	1.928
283.15 K, m1 = 1.395	2.731	–	1313.4	2.608
283.15 K, m1 = 1.717	2.848	–	1336.5	3.023
283.15 K, m1 = 2	2.892	–	1358.1	3.682
293.15 K, m1 = 0.0542	0.3414	–	1128.4	0.6286
293.15 K, m1 = 0.078	0.5074	–	1134.9	–
293.15 K, m1 = 0.0925	0.5615	–	1137.7	0.6569
293.15 K, m1 = 0.1673	0.854	–	1146	0.7098
293.15 K, m1 = 0.2872	1.253	–	1161.8	0.7995
293.15 K, m1 = 0.3228	1.37	–	1165.4	0.8248
293.15 K, m1 = 0.4313	1.702	–	1181.4	0.9286
293.15 K, m1 = 0.6444	2.209	–	1205.9	1.112
293.15 K, m1 = 1.059	2.926	–	1247.5	1.585
293.15 K, m1 = 1.395	3.221	–	1282.1	2.11
293.15 K, m1 = 1.717	3.39	–	1307.5	2.43
293.15 K, m1 = 2	3.474	–	1329.1	2.923
294 K, m1 = 0.078	–	802.89	–	–
295.3 K, m1 = 0.0925	–	802.82	–	–
296.85 K, m1 = 0.3228	–	829.87	–	–
296.9 K, m1 = 0.2872	–	825.72	–	–
297.7 K, m1 = 0.078	–	799.44	–	–
298 K, m1 = 0.0925	–	800.22	–	–
298.15 K, m1 = 0.0542	0.3599	–	1111.3	0.5841
298.15 K, m1 = 0.078	0.5344	–	1119.1	–
298.15 K, m1 = 0.0925	0.5917	–	1121.2	0.6098
298.15 K, m1 = 0.1673	0.9009	–	1129.8	0.656
298.15 K, m1 = 0.2872	1.332	–	1145.7	0.7391
298.15 K, m1 = 0.3228	1.452	–	1149.1	0.7618
298.15 K, m1 = 0.4313	1.807	–	1165.2	0.856
298.15 K, m1 = 0.6444	2.389	–	1189.2	1.019
298.15 K, m1 = 1.059	3.143	–	1232	1.446
298.15 K, m1 = 1.395	3.48	–	1267.7	1.91
298.15 K, m1 = 1.717	3.683	–	1293.2	2.196
298.15 K, m1 = 2	3.779	–	1314.4	2.624
298.3 K, m1 = 0.1673	–	809.54	–	–
299.45 K, m1 = 0.078	–	797.76	–	–
299.75 K, m1 = 0.3228	–	827.21	–	–
299.8 K, m1 = 0.0925	–	798.59	–	–
299.8 K, m1 = 0.2872	–	823.08	–	–
301.15 K, m1 = 0.078	–	796.1	–	–
301.15 K, m1 = 0.1673	–	806.95	–	–
301.65 K, m1 = 0.0925	–	796.87	–	–
302.7 K, m1 = 0.3228	–	824.56	–	–
302.75 K, m1 = 0.2872	–	820.44	–	–
302.75 K, m1 = 2	–	1006.5	–	–
302.9 K, m1 = 0.078	–	794.53	–	–
303.05 K, m1 = 0.1673	–	805.22	–	–
303.15 K, m1 = 0.0542	0.3785	–	1094.8	0.5431
303.15 K, m1 = 0.078	0.5625	–	1101.6	–
303.15 K, m1 = 0.0925	0.6223	–	1104.6	0.5669
303.15 K, m1 = 0.1673	0.9485	–	1114	0.6084
303.15 K, m1 = 0.2872	1.407	–	1129.8	0.684
303.15 K, m1 = 0.3228	1.534	–	1133.5	0.7005
303.15 K, m1 = 0.4313	1.913	–	1147	0.7937
303.15 K, m1 = 0.6444	2.541	–	1173.3	0.9348
303.15 K, m1 = 1.059	3.367	–	1217	1.323
303.15 K, m1 = 1.395	3.746	–	1253.3	1.732
303.15 K, m1 = 1.717	3.979	–	1277.6	1.99
303.15 K, m1 = 2	4.1	–	1301.6	2.362
303.5 K, m1 = 0.4313	–	838.73	–	–
303.55 K, m1 = 1.059	–	918.43	–	–
303.55 K, m1 = 1.717	–	980.32	–	–
303.9 K, m1 = 0.0542	–	788.92	–	–
304.2 K, m1 = 0.0925	–	794.46	–	–
304.55 K, m1 = 1.395	–	955.29	–	–
304.85 K, m1 = 0.6444	–	864.55	–	–
305.45 K, m1 = 0.2872	–	817.88	–	–
305.5 K, m1 = 0.078	–	792.01	–	–
305.5 K, m1 = 0.3228	–	821.98	–	–
305.7 K, m1 = 0.1673	–	802.67	–	–
305.75 K, m1 = 1.059	–	916.49	–	–
305.95 K, m1 = 0.6444	–	863.6	–	–
306 K, m1 = 1.717	–	978.23	–	–
306.55 K, m1 = 0.4313	–	836.04	–	–
306.6 K, m1 = 0.0542	–	786.39	–	–
306.65 K, m1 = 2	–	1003.3	–	–
306.8 K, m1 = 0.0925	–	791.94	–	–
306.95 K, m1 = 1.395	–	953.22	–	–
307.15 K, m1 = 0.078	–	790.37	–	–
307.25 K, m1 = 0.2872	–	816.19	–	–
307.3 K, m1 = 0.3228	–	820.29	–	–
307.35 K, m1 = 0.1673	–	801.01	–	–
308 K, m1 = 1.059	–	914.51	–	–
308.05 K, m1 = 0.6444	–	861.75	–	–
308.35 K, m1 = 0.0542	–	784.7	–	–
308.45 K, m1 = 1.717	–	976.24	–	–
308.5 K, m1 = 0.4313	–	834.26	–	–
309.25 K, m1 = 2	–	1001.1	–	–
309.3 K, m1 = 1.395	–	951.18	–	–
309.35 K, m1 = 0.0925	–	789.49	–	–
309.7 K, m1 = 0.078	–	787.95	–	–
309.9 K, m1 = 0.2872	–	813.69	–	–
309.95 K, m1 = 0.3228	–	817.77	–	–
310.85 K, m1 = 1.717	–	974.13	–	–
311.05 K, m1 = 0.0542	–	782.22	–	–
311.05 K, m1 = 0.0925	–	787.88	–	–
311.15 K, m1 = 0.6444	–	859.02	–	–
311.4 K, m1 = 0.4313	–	831.61	–	–
311.45 K, m1 = 1.059	–	911.67	–	–
311.55 K, m1 = 1.395	–	949.18	–	–
311.75 K, m1 = 0.1673	–	796.89	–	–
311.75 K, m1 = 2	–	999.04	–	–
312.55 K, m1 = 0.2872	–	811.13	–	–
312.6 K, m1 = 0.3228	–	815.21	–	–
313.15 K, m1 = 0.0542	0.4141	–	1062.7	0.4735
313.15 K, m1 = 0.078	0.6138	–	1069.7	–
313.15 K, m1 = 0.0925	0.6801	–	1072.7	0.4938
313.15 K, m1 = 0.1673	1.04	–	1082.2	0.5284
313.15 K, m1 = 0.2872	1.549	–	1098.9	0.5874
313.15 K, m1 = 0.3228	1.691	–	1102.5	0.6082
313.15 K, m1 = 0.4313	2.119	–	1115.5	0.6824
313.15 K, m1 = 0.6444	2.844	–	1141.6	0.7966
313.15 K, m1 = 1.059	3.813	–	1185.5	1.119
313.15 K, m1 = 1.395	4.297	–	1224.6	1.445
313.15 K, m1 = 1.717	4.592	–	1249.9	1.656
313.15 K, m1 = 2	4.75	–	1273.8	1.945
313.25 K, m1 = 0.4313	–	829.89	–	–
313.25 K, m1 = 1.717	–	972.12	–	–
313.35 K, m1 = 0.1673	–	795.24	–	–
313.6 K, m1 = 0.0542	–	779.81	–	–
313.75 K, m1 = 1.395	–	947.21	–	–
314.05 K, m1 = 0.6444	–	856.37	–	–
314.15 K, m1 = 2	–	996.96	–	–
314.65 K, m1 = 1.059	–	908.74	–	–
315.1 K, m1 = 0.2872	–	808.66	–	–
315.2 K, m1 = 0.3228	–	812.71	–	–
315.8 K, m1 = 0.1673	–	792.81	–	–
315.85 K, m1 = 0.6444	–	854.66	–	–
315.9 K, m1 = 1.395	–	945.34	–	–
316 K, m1 = 0.4313	–	827.39	–	–
316.1 K, m1 = 0.0542	–	777.42	–	–
316.75 K, m1 = 1.717	–	969.14	–	–
317.85 K, m1 = 1.059	–	906.01	–	–
317.9 K, m1 = 2	–	993.97	–	–
318.5 K, m1 = 0.0542	–	774.98	–	–
318.5 K, m1 = 0.6444	–	851.96	–	–
318.65 K, m1 = 0.4313	–	824.78	–	–
319 K, m1 = 1.717	–	967.11	–	–
319.3 K, m1 = 1.395	–	942.34	–	–
320.05 K, m1 = 0.0542	–	773.35	–	–
320.15 K, m1 = 2	–	991.84	–	–
320.2 K, m1 = 0.6444	–	850.2	–	–
320.65 K, m1 = 1.059	–	903.14	–	–
321.15 K, m1 = 0.4313	–	822.18	–	–
322.3 K, m1 = 2	–	989.79	–	–
322.35 K, m1 = 1.717	–	964.07	–	–
322.45 K, m1 = 1.059	–	901.27	–	–
322.5 K, m1 = 1.395	–	939.42	–	–
